What all share (assay): relative viability (nuclei count vs DMSO), 5 days (fraction); higher = more cells survive
Compound in the experiment “Omipalisib + Foretinib”: COc1ncc(-c2ccc3nccc(-c4ccnnc4)c3c2)cc1NS(=O)(=O)c1ccc(F)cc1F [Omipalisib] + COc1cc2c(Oc3ccc(NC(=O)C4(C(=O)Nc5ccc(F)cc5)CC4)cc3F)ccnc2cc1OCCCN1CCOCC1 [Foretinib] (partner 0.25 µM)
In a few lines: (§1)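 Medians of duplicate plates are given as relative viability. That measure is the nuclei count in treated wells divided by the count in vehicle wells. Counts were taken on 4× images of lung cancer cell lines in 1536-well plates, 5 days after pin-tool dosing the day after seeding with one drug alone or a fixed anchor-drug dose plus five library-drug doses (not always all listed) in √10 steps.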

Compound in the experiment “Omipalisib + OSI-027”: COc1ncc(-c2ccc3nccc(-c4ccnnc4)c3c2)cc1NS(=O)(=O)c1ccc(F)cc1F [Omipalisib] + COc1cccc2cc(-c3nc([C@H]4CC[C@H](C(=O)O)CC4)n4ncnc(N)c34)[nH]c12 [OSI-027] (partner 0.5 µM)
In a few lines: as §1

Compound in the experiment “Omipalisib + Crizotinib”: COc1ncc(-c2ccc3nccc(-c4ccnnc4)c3c2)cc1NS(=O)(=O)c1ccc(F)cc1F [Omipalisib] + C[C@@H](Oc1cc(-c2cnn(C3CCNCC3)c2)cnc1N)c1c(Cl)ccc(F)c1Cl [Crizotinib] (partner 1 µM)
In a few lines: as §1

Compound in the experiment “Omipalisib + Dasatinib”: COc1ncc(-c2ccc3nccc(-c4ccnnc4)c3c2)cc1NS(=O)(=O)c1ccc(F)cc1F [Omipalisib] + Cc1nc(Nc2ncc(C(=O)Nc3c(C)cccc3Cl)s2)cc(N2CCN(CCO)CC2)n1 [Dasatinib] (partner 0.075 µM)
In a few lines: as §1

Compound in the experiment “Omipalisib + Pemetrexed”: COc1ncc(-c2ccc3nccc(-c4ccnnc4)c3c2)cc1NS(=O)(=O)c1ccc(F)cc1F [Omipalisib] + Nc1nc2[nH]cc(CCc3ccc(C(=O)N[C@@H](CCC(=O)O)C(=O)O)cc3)c2c(=O)[nH]1 [Pemetrexed] (partner 0.2 µM)
In a few lines: as §1

Compound in the experiment “Omipalisib + Palbociclib”: COc1ncc(-c2ccc3nccc(-c4ccnnc4)c3c2)cc1NS(=O)(=O)c1ccc(F)cc1F [Omipalisib] + CC(=O)c1c(C)c2cnc(Nc3ccc(N4CCNCC4)cn3)nc2n(C2CCCC2)c1=O [Palbociclib] (partner 0.5 µM)
In a few lines: as §1

As to NCI-H596, the relative viability with Omipalisib + Foretinib (first compound 0.0003 µM) came out at 0.559; in the experiment with Omipalisib + Foretinib (first compound 0.003 µM) it was 0.485; with Omipalisib + Foretinib (first compound 0.03 µM), 0.304; with Omipalisib + OSI-027 (first compound 0.0003 µM), 0.726; in the experiment with Omipalisib + OSI-027 (first compound 0.003 µM), 0.352; with Omipalisib + OSI-027 (first compound 0.03 µM), 0.309. The relative viability with Omipalisib + Crizotinib (first compound 0.0003 µM) was determined as 0.93; with Omipalisib + Crizotinib (first compound 0.003 µM) it was 0.561; in the experiment with Omipalisib + Crizotinib (first compound 0.03 µM), 0.361; in the experiment with Omipalisib + Dasatinib (first compound 0.0003 µM), 0.618; in the experiment with Omipalisib + Dasatinib (first compound 0.003 µM), 0.44; with Omipalisib + Dasatinib (first compound 0.03 µM), 0.295. For the same cell line, the relative viability was 0.497 in the experiment with Omipalisib + Pemetrexed (first compound 0.0003 µM), 0.586 with Omipalisib + Pemetrexed (first compound 0.003 µM) and 0.407 with Omipalisib + Pemetrexed (first compound 0.03 µM).
Regarding NCI-H460, the relative viability with Omipalisib + Palbociclib (first compound 0.0003 µM) came to 0.147; with Omipalisib + Palbociclib (first compound 0.003 µM) it was 0.0934; with Omipalisib + Palbociclib (first compound 0.03 µM) it was 0.0384; with Omipalisib + Foretinib (first compound 0.0003 µM), 1.04; in the experiment with Omipalisib + Foretinib (first compound 0.003 µM) it was 1.01; with Omipalisib + Foretinib (first compound 0.03 µM) it was 0.347. Also, the relative viability amounted to 0.661 in the experiment with Omipalisib + OSI-027 (first compound 0.0003 µM); 0.258 with Omipalisib + OSI-027 (first compound 0.003 µM); 0.0847 with Omipalisib + OSI-027 (first compound 0.03 µM); 0.772 with Omipalisib + Crizotinib (first compound 0.0003 µM); 0.589 with Omipalisib + Crizotinib (first compound 0.003 µM); 0.132 with Omipalisib + Crizotinib (first compound 0.03 µM). Further, the relative viability with Omipalisib + Dasatinib (first compound 0.0003 µM) was determined as 0.385; with Omipalisib + Dasatinib (first compound 0.003 µM), 0.288; with Omipalisib + Dasatinib (first compound 0.03 µM), 0.0813; with Omipalisib + Pemetrexed (first compound 0.0003 µM) it was 0.0592; with Omipalisib + Pemetrexed (first compound 0.003 µM), 0.0512; in the experiment with Omipalisib + Pemetrexed (first compound 0.03 µM), 0.0757.
Take NCI-H1792: the relative viability with Omipalisib + Palbociclib (first compound 0.0003 µM) was determined as 0.636; with Omipalisib + Palbociclib (first compound 0.003 µM) it was 0.424; with Omipalisib + Palbociclib (first compound 0.03 µM), 0.27; in the experiment with Omipalisib + OSI-027 (first compound 0.0003 µM) it was 0.653; with Omipalisib + OSI-027 (first compound 0.003 µM) it was 0.404; in the experiment with Omipalisib + OSI-027 (first compound 0.03 µM), 0.224. The relative viability in the experiment with Omipalisib + Crizotinib (first compound 0.0003 µM) was 0.971; in the experiment with Omipalisib + Crizotinib (first compound 0.003 µM), 0.848; in the experiment with Omipalisib + Crizotinib (first compound 0.03 µM), 0.269; with Omipalisib + Dasatinib (first compound 0.0003 µM), 0.566; with Omipalisib + Dasatinib (first compound 0.003 µM) it was 0.521; with Omipalisib + Dasatinib (first compound 0.03 µM) it was 0.21. Further, the relative viability in the experiment with Omipalisib + Pemetrexed (first compound 0.0003 µM) worked out at 0.835; with Omipalisib + Pemetrexed (first compound 0.003 µM), 0.319; with Omipalisib + Pemetrexed (first compound 0.03 µM) it was 0.103.
Take RERF-LC-KJ: the relative viability came out at 1.04 in the experiment with Omipalisib + Palbociclib (first compound 0.0003 µM); 0.846 with Omipalisib + Palbociclib (first compound 0.003 µM); 0.555 with Omipalisib + Palbociclib (first compound 0.03 µM); 0.786 with Omipalisib + Foretinib (first compound 0.0003 µM); 0.58 with Omipalisib + Foretinib (first compound 0.003 µM); 0.594 with Omipalisib + Foretinib (first compound 0.03 µM). The relative viability came to 0.524 in the experiment with Omipalisib + OSI-027 (first compound 0.0003 µM); 0.423 in the experiment with Omipalisib + OSI-027 (first compound 0.003 µM); 0.367 in the experiment with Omipalisib + OSI-027 (first compound 0.03 µM); 0.736 in the experiment with Omipalisib + Crizotinib (first compound 0.0003 µM); 0.814 with Omipalisib + Crizotinib (first compound 0.003 µM); 0.679 with Omipalisib + Crizotinib (first compound 0.03 µM). In addition, the relative viability with Omipalisib + Dasatinib (first compound 0.0003 µM) worked out at 0.757; with Omipalisib + Dasatinib (first compound 0.003 µM), 0.509; with Omipalisib + Dasatinib (first compound 0.03 µM) it was 0.407; in the experiment with Omipalisib + Pemetrexed (first compound 0.0003 µM), 0.47; with Omipalisib + Pemetrexed (first compound 0.003 µM), 0.439; with Omipalisib + Pemetrexed (first compound 0.03 µM) it was 0.414.
Regarding COR-L23, the relative viability in the experiment with Omipalisib + Palbociclib (first compound 0.0003 µM) was 0.286; with Omipalisib + Palbociclib (first compound 0.003 µM) it was 0.246; with Omipalisib + Palbociclib (first compound 0.03 µM) it was 0.212; with Omipalisib + Foretinib (first compound 0.0003 µM) it was 0.974; in the experiment with Omipalisib + Foretinib (first compound 0.003 µM) it was 1.01; with Omipalisib + Foretinib (first compound 0.03 µM) it was 0.719. The relative viability came to 0.786 with Omipalisib + OSI-027 (first compound 0.0003 µM); 0.59 with Omipalisib + OSI-027 (first compound 0.003 µM); 0.483 with Omipalisib + OSI-027 (first compound 0.03 µM); 0.794 in the experiment with Omipalisib + Crizotinib (first compound 0.0003 µM); 0.667 with Omipalisib + Crizotinib (first compound 0.003 µM); 0.292 with Omipalisib + Crizotinib (first compound 0.03 µM). Further, the relative viability was determined as 0.487 in the experiment with Omipalisib + Dasatinib (first compound 0.0003 µM); 0.323 with Omipalisib + Dasatinib (first compound 0.003 µM); 0.239 with Omipalisib + Dasatinib (first compound 0.03 µM); 0.2 with Omipalisib + Pemetrexed (first compound 0.0003 µM); 0.2 in the experiment with Omipalisib + Pemetrexed (first compound 0.003 µM); 0.197 with Omipalisib + Pemetrexed (first compound 0.03 µM).
In the case of UMC-11, the relative viability amounted to 0.332 in the experiment with Omipalisib + Palbociclib (first compound 0.0003 µM); 0.272 in the experiment with Omipalisib + Palbociclib (first compound 0.003 µM); 0.299 in the experiment with Omipalisib + Palbociclib (first compound 0.03 µM); 1.04 with Omipalisib + Foretinib (first compound 0.0003 µM); 0.803 in the experiment with Omipalisib + Foretinib (first compound 0.003 µM); 0.795 with Omipalisib + Foretinib (first compound 0.03 µM). For the same cell line, the relative viability in the experiment with Omipalisib + OSI-027 (first compound 0.0003 µM) was found to be 0.376; in the experiment with Omipalisib + OSI-027 (first compound 0.003 µM) it was 0.349; with Omipalisib + OSI-027 (first compound 0.03 µM) it was 0.48; with Omipalisib + Crizotinib (first compound 0.0003 µM), 0.491; in the experiment with Omipalisib + Crizotinib (first compound 0.003 µM), 0.588; with Omipalisib + Crizotinib (first compound 0.03 µM) it was 0.434. The relative viability came to 0.445 in the experiment with Omipalisib + Dasatinib (first compound 0.0003 µM); 0.455 with Omipalisib + Dasatinib (first compound 0.003 µM); 0.422 in the experiment with Omipalisib + Dasatinib (first compound 0.03 µM); 0.717 in the experiment with Omipalisib + Pemetrexed (first compound 0.0003 µM); 0.63 with Omipalisib + Pemetrexed (first compound 0.003 µM); 0.648 with Omipalisib + Pemetrexed (first compound 0.03 µM).
With SW 1573, the relative viability with Omipalisib + Palbociclib (first compound 0.0003 µM) was determined as 0.335; in the experiment with Omipalisib + Palbociclib (first compound 0.003 µM) it was 0.325; with Omipalisib + Palbociclib (first compound 0.03 µM) it was 0.191; with Omipalisib + Foretinib (first compound 0.0003 µM), 0.693; with Omipalisib + Foretinib (first compound 0.003 µM), 0.595; in the experiment with Omipalisib + Foretinib (first compound 0.03 µM), 0.401. The relative viability in the experiment with Omipalisib + OSI-027 (first compound 0.0003 µM) is 0.397; with Omipalisib + OSI-027 (first compound 0.003 µM), 0.371; with Omipalisib + OSI-027 (first compound 0.03 µM), 0.225; in the experiment with Omipalisib + Crizotinib (first compound 0.0003 µM), 0.812; with Omipalisib + Crizotinib (first compound 0.003 µM), 0.628; with Omipalisib + Crizotinib (first compound 0.03 µM), 0.379. Moreover, the relative viability with Omipalisib + Dasatinib (first compound 0.0003 µM) is 0.165; with Omipalisib + Dasatinib (first compound 0.003 µM), 0.331; in the experiment with Omipalisib + Dasatinib (first compound 0.03 µM), 0.101; with Omipalisib + Pemetrexed (first compound 0.0003 µM), 0.568; in the experiment with Omipalisib + Pemetrexed (first compound 0.003 µM) it was 0.549; with Omipalisib + Pemetrexed (first compound 0.03 µM), 0.366.
Consider NCI-H1395, for which the relative viability in the experiment with Omipalisib + Palbociclib (first compound 0.0003 µM) came to 0.623; with Omipalisib + Palbociclib (first compound 0.003 µM) it was 0.563; with Omipalisib + Palbociclib (first compound 0.03 µM), 0.464; with Omipalisib + Foretinib (first compound 0.0003 µM), 0.916; with Omipalisib + Foretinib (first compound 0.003 µM), 0.886; in the experiment with Omipalisib + Foretinib (first compound 0.03 µM) it was 0.586. The relative viability in the experiment with Omipalisib + OSI-027 (first compound 0.0003 µM) stood at 0.608; with Omipalisib + OSI-027 (first compound 0.003 µM) it was 0.458; with Omipalisib + OSI-027 (first compound 0.03 µM) it was 0.527; in the experiment with Omipalisib + Dasatinib (first compound 0.0003 µM) it was 0.417; with Omipalisib + Dasatinib (first compound 0.003 µM), 0.362; with Omipalisib + Dasatinib (first compound 0.03 µM), 0.348. Also, the relative viability with Omipalisib + Pemetrexed (first compound 0.0003 µM) came out at 0.737; in the experiment with Omipalisib + Pemetrexed (first compound 0.003 µM) it was 0.657; with Omipalisib + Pemetrexed (first compound 0.03 µM) it was 0.602.

These data come from the supplement of paper PMC10307832.
